The supplement of paper PMC12137928
Counter-ions that a name gives are not always drawn.

Tests used:
HCT116 [1] = assay: efficacy (maximum % inhibition of viability vs DMSO); higher = more cytotoxic; details: 72 h
Summary of the method: (§1)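 HCT116 cells were seeded at 250 per well in 1536-well plates and left 5 h to attach. CellTiter-Glo luminescence was scaled to vehicle (0%) and positive control (-100%), then pattern-corrected. IC50 and maximal efficacy came from four-parameter Hill fits.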

HCT116 [2] = details: 72 h
Summary of the method: as §1

Row | SMILES | efficacy (HCT116 [1]; ICRF193 200 nM) | IC50 cell viability (HCT116 [2]; ICRF193 0 nM) | IC50 cell viability (HCT116 [2]; ICRF193 200 nM) | efficacy (HCT116 [1]; ICRF193 0 nM)
1 | N=C(N)c1ccc(OCCCCCOc2ccc(C(=N)N)cc2)cc1 [Pentamidine isethionate] | 60.4% | > 45.8 µM | 18.3 µM | 
2 | CN1CCN(CCCN2c3ccccc3Sc3ccccc32)CC1 [Perazine] | 95.2% | 31.6 µM | 35.5 µM | 86.5%
3 | C1CCC(C(CC2CCCCN2)C2CCCCC2)CC1 (centres undefined) [Perhexiline] | 100% | 18.3 µM | 18.3 µM | 90.2%
4 | OCCN1CCN(CCCN2c3ccccc3Sc3ccc(Cl)cc32)CC1 [Perphenazine] | 115% | 23.1 µM | 23.1 µM | 108%
5 | CC(=O)[O][Hg][c]1ccccc1 [Phenylmercuric acetate] | 97.9% | 4.61 µM | 5.17 µM | 106%
6 | CC(C)COc1ccc(CNC(=O)N(Cc2ccc(F)cc2)C2CCN(C)CC2)cc1 [Pimavanserin] | 97.4% | 18.3 µM | 18.3 µM | 96.9%
7 | CC[C@@H]1/C=C(\C)C[C@H](C)C[C@H](OC)[C@H]2O[C@@](O)(C(=O)C(=O)N3CCCC[C@H]3C(=O)O[C@H](/C(C)=C/[C@@H]3CC[C@H](Cl)[C@H](OC)C3)[C@H](C)[C@@H](O)CC1=O)[C@H](C)C[C@@H]2OC [Pimecrolimus] | 63.4% | 14.6 µM | 18.3 µM | 62.4%
8 | O=c1[nH]c2ccccc2n1C1CCN(CCCC(c2ccc(F)cc2)c2ccc(F)cc2)CC1 [Pimozide] | 109% | 18.3 µM | 20.6 µM | 102%
9 | CC(=O)c1ccc2c(c1)N(CCCN1CCC(CCO)CC1)c1ccccc1S2 [Piperacetazine] | 48.7% | > 45.8 µM | 20.6 µM | 
10 | COc1cccc2c1C(=O)c1c(O)c3c(c(O)c1C2=O)C[C@@](O)(C(=O)CO)C[C@@H]3O[C@H]1C[C@H](N)[C@H](O[C@@H]2CCCCO2)[C@H](C)O1 [Pirarubicin] | 104% | 5.17 µM | 6.51 µM | 127%
11 | Cc1cc(CC(C)CC(C)(C)C)n(O)c(=O)c1 (centres undefined) [Piroctone Olamine] | 87.4% | 18.3 µM | 29.1 µM | 81%
12 | O=C(O)C[C@H](O)C[C@H](O)/C=C/c1c(C2CC2)nc2ccccc2c1-c1ccc(F)cc1 [Pitavastatin Calcium] | 110% | 7.3 µM | 3.66 µM | 100%
13 | NCCNc1ccc(NCCN)c2c1C(=O)c1ccncc1C2=O [Pixantronemaleate] | 82.2% | 29.1 µM | 13 µM | 83.2%
14 | CO[C@H](C(=O)[C@@H](O)[C@@H](C)O)[C@@H]1Cc2cc3cc(O[C@H]4C[C@@H](O[C@@H]5C[C@@H](O)[C@H](O)[C@@H](C)O5)[C@H](O)[C@@H](C)O4)c(C)c(O)c3c(O)c2C(=O)[C@H]1O[C@H]1C[C@@H](O[C@@H]2C[C@@H](O)[C@@H](O[C@@H]3C[C@](C)(O)[C@H](O)[C@@H](C)O3)[C@@H](C)O2)[C@H](O)[C@@H](C)O1 [Plicamycin] | 83.7% | 0.0651 µM | 0.058 µM | 82.3%
15 | C#CCC(Cc1cnc2nc(N)nc(N)c2n1)c1ccc(C(=O)N[C@@H](CCC(=O)O)C(=O)O)cc1 (some centres undefined) [Pralatrexate] | 85.6% | 0.0082 µM | 0.00651 µM | 84.8%
16 | COc1cc2nc(N3CCN(C(=O)c4ccco4)CC3)nc(N)c2cc1OC [Prazosin] | 42.5% | > 45.8 µM | 7.99 µM | 
17 | CC(C)(C)CC(=O)OCC(=O)[C@@]1(O)CC[C@H]2[C@@H]3CCC4=CC(=O)C=C[C@]4(C)[C@H]3[C@@H](O)C[C@@]21C [Prednisolone tebutate] | 41.9% | > 45.8 µM | 29.1 µM | 
18 | COc1cc(NC(C)CCCN)c2ncccc2c1 (centres undefined) [Primaquine diphosphate] |  | 5.8 µM | > 45.8 µM | 87.5%
19 | CN1CCN(CCCN2c3ccccc3Sc3ccc(Cl)cc32)CC1 [Prochlorperazine dimaleate] | 81.1% | 25.9 µM | 20.6 µM | 89.6%
20 | Nc1ccc2cc3ccc(N)cc3nc2c1 [Proflavin hemisulfate] | 93.6% | 20.6 µM | 29.1 µM | 95.1%
21 | CC(=O)[C@H]1CC[C@H]2[C@@H]3CCC4=CC(=O)CC[C@]4(C)[C@H]3CC[C@]12C [Progesterone] | 51.2% | 29.1 µM | 18.3 µM | 43.3%
22 | CCCN(CCC)C(=O)C(CCC(=O)OCCCN1CCN(CCOC(=O)Cc2c(C)n(C(=O)c3ccc(Cl)cc3)c3ccc(OC)cc23)CC1)NC(=O)c1ccccc1 (centres undefined) [Proglumetacin] | 48.5% | > 45.8 µM | 20.6 µM | 
23 | CN(C)CCCN1c2ccccc2Sc2ccccc21 [Promazine hydrochloride] | 46.3% | > 45.8 µM | 20.6 µM | 
24 | CC(CN1c2ccccc2Sc2ccccc21)N(C)C (centres undefined) [Promethazine] | 45.3% | > 45.8 µM | 29.1 µM | 
25 | CCC(=O)c1ccc2c(c1)N(CCCN(C)C)c1ccccc1S2 [Propionylpromazine hydrochloride] | 60.1% | > 45.8 µM | 23.1 µM | 

Row | SMILES | efficacy (HCT116 [1]; ICRF193 200 nM) | IC50 cell viability (HCT116 [2]; ICRF193 0 nM) | IC50 cell viability (HCT116 [2]; ICRF193 200 nM) | efficacy (HCT116 [1]; ICRF193 0 nM)
26 | CCCOC(C(=O)OC1CCN(C)CC1)(c1ccccc1)c1ccccc1 [Propiverine hydrochloride] | 45% | > 45.8 µM | 16.4 µM | 
27 | C[C@@H]1O[C@@H](O[C@@H]2C=C3CC[C@@H]4[C@H](CC[C@]5(C)[C@@H](c6ccc(=O)oc6)CC[C@]45O)[C@@]3(C)CC2)[C@H](O)[C@H](O)[C@H]1O [Proscillaridin] | 91.3% | 0.0164 µM | 0.013 µM | 107%
28 | CCCCC[C@H](O)/C=C/[C@H]1[C@H](O)CC(=O)[C@@H]1C/C=C\CCCC(=O)O [Prostaglandin E2] | 84.7% | 29.1 µM | 23.1 µM | 68.9%
29 | CCCSS/C(CCO)=C(/C)N(C=O)Cc1cnc(C)nc1N [Prosultiamine] | 43.7% | > 45.8 µM | 29.1 µM | 
30 | CNCCCC1c2ccccc2C=Cc2ccccc21 [Protriptyline hydrochloride] | 95.4% | 29.1 µM | 29.1 µM | 68.2%
31 | CCc1nc(N)nc(N)c1-c1ccc(Cl)cc1 [Pyrimethamine] | 93.4% | 11.6 µM | 9.2 µM | 106%
32 | O=[N+]([O-])c1c(Cl)cccc1-c1c[nH]cc1Cl [Pyrrolnitrin] | 55.5% | 14.6 µM | 18.3 µM | 54.1%
33 | C#C[C@]1(O)CC[C@H]2[C@@H]3CCc4cc(OC5CCCC5)ccc4[C@H]3CC[C@@]21C [Quinestrol] | 56.3% | 20.6 µM | 23.1 µM | 55%
34 | O=C(c1ccc(OCCN2CCCCC2)cc1)c1c(-c2ccc(O)cc2)sc2cc(O)ccc12 [Raloxifene hydrochloride] | 88.8% | 18.3 µM | 20.6 µM | 98.1%
35 | CNC(=O)c1cc(Oc2ccc(NC(=O)Nc3ccc(Cl)c(C(F)(F)F)c3)c(F)c2)ccn1 [Regorafenib] | 80.7% | 8.2 µM | 5.8 µM | 67.3%
36 | COC(=O)[C@H]1[C@H]2C[C@@H]3c4[nH]c5cc(OC)ccc5c4CCN3C[C@H]2C[C@@H](OC(=O)/C=C/c2ccc(O)c(OC)c2)[C@@H]1OC [Rescimetol] | 106% | 20.6 µM | 29.1 µM | 101%
37 | COC(=O)[C@H]1[C@H]2C[C@@H]3c4[nH]c5cc(OC)ccc5c4CCN3C[C@H]2C[C@@H](OC(=O)c2cc(OC)c(OC)c(OC)c2)[C@@H]1OC [Reserpine] | 42.6% | > 45.8 µM | 16.4 µM | 
38 | Oc1cccc(O)c1 [Resorcinol] | 46.8% | > 45.8 µM | 29.1 µM | 
39 | C=CCNc1c(O)cc2c(O)c1C[C@@H](C)C[C@H](OC)[C@H](O)[C@@H](C)/C=C(\C)[C@H](OC(N)=O)[C@@H](OC)/C=C\C=C(/C)C(=O)N2 [Retaspimycin (Hydrochloride)] | 79.8% | 1.16 µM | 0.291 µM | 80.4%
40 | CCCC(=O)OC[C@@H](OC(=O)CCC)[C@@H](OC(=O)CCC)[C@H](Cn1c2nc(=O)[nH]c(=O)c-2nc2cc(C)c(C)cc21)OC(=O)CCC [Riboflavin tetrabutyrate] | 82.1% | 29.1 µM | 18.3 µM | 64.5%
41 | Cc1cc2nc3c(=O)[nH]c(=O)nc-3n(C[C@H](O)[C@H](O)[C@H](O)CO)c2cc1C [Riboflavin] | 57.7% | > 45.8 µM | 14.2 µM | 
42 | CO[C@H]1/C=C/O[C@@]2(C)Oc3c(C)c(O)c4c(O)c(c(/C=N/N5CCN(C)CC5)c(O)c4c3C2=O)NC(=O)/C(C)=C\C=C\[C@H](C)[C@H](O)[C@@H](C)[C@@H](O)[C@@H](C)[C@H](OC(C)=O)[C@@H]1C [Rifampicin] | 44.1% | 29.1 µM | 29.1 µM | 44.2%
43 | Cc1cc(/C=C/C#N)cc(C)c1Nc1ccnc(Nc2ccc(C#N)cc2)n1 [Rilpivirine] | 84.8% | 20.6 µM | 18.3 µM | 83.7%
44 | Nc1nc2ccc(OC(F)(F)F)cc2s1 [Riluzole] | 46.2% | > 45.8 µM | 23.1 µM | 
45 | Cc1c(C(=O)NN2CCCCC2)nn(-c2ccc(Cl)cc2Cl)c1-c1ccc(Cl)cc1 [Rimonabant] | 87.3% | 18.3 µM | 29.1 µM | 64.4%
46 | CC(C)c1nc(CN(C)C(=O)N[C@H](C(=O)N[C@@H](Cc2ccccc2)C[C@H](O)[C@H](Cc2ccccc2)NC(=O)OCc2cncs2)C(C)C)cs1 [Ritonavir] | 57.4% | > 45.8 µM | 20.6 µM | 
47 | O=C(O)c1c(Cl)c(Cl)c(Cl)c(Cl)c1-c1c2cc(I)c(=O)c(I)c-2oc2c(I)c(O)c(I)cc12 [Rose Bengal disodium] | 62.4% | 16.4 µM | 11.6 µM | 74.2%
48 | C=C(C)[C@H]1Cc2c(ccc3c2O[C@@H]2COc4cc(OC)c(OC)cc4[C@@H]2C3=O)O1 [Rotenone] | 89.1% | 0.326 µM | 0.517 µM | 69.7%
49 | CC[C@@]1(O)C(=O)OCc2c1cc1n(c2=O)Cc2cc3c([N+](=O)[O-])cccc3nc2-1 [Rubitecan] | 96.5% | 0.447 µM | 0.0891 µM | 81.2%
50 | Cc1cncc(CN2CCC(=C3c4ccc(Cl)cc4CCc4cccnc43)CC2)c1 [Rupatadine (Fumarate)] | 88.3% | 18.3 µM | 20.6 µM | 56.6%
